{"source": "patent US11852633B2", "about": "(priority 2017, dated 2023)", "details": "K2CO3 5 mM, CH3CN:water (4:1), 1 hour"}
{"smiles": "O=[N+]([O-])c1ccc(S(=O)(=O)Oc2ccccc2)c([N+](=O)[O-])c1", "note": "[probe 1, phenyl 2,4-dinitrobenzenesulfonate]", "values": [{"measurement": "CD response with other L-amino acids (phenylalanine, alanine, serine, tyrosine) versus L-Cys", "setting": "probe 2.50 mM, amino acid 1.25 mM", "value": "remained CD silent with the exception of the cysteine solution"}, {"measurement": "CD response with biothiols L-homocysteine and L-glutathione", "setting": "probe 2.5 mM, biothiol 1.25 mM", "value": "no induction of a CD signal"}]}
